# Counter-ions that a name gives are not always drawn.
# Experiment: Raman spectra after processing steps (hydrate stability in tablets)
# Assay type: physicochemical
# Method: Vardenafil hydrochloride trihydrate and anhydrate can be identified and distinguished from one another e.g. by means of Raman spectroscopy.
# Raman spectra were recorded after the processing steps of precompacting, subsequent mixing, pressing and coating (FIGS. 1 and 2). For this, the film was scratched off from the film-coated tablets beforehand. The Raman spectra of the pure vardenafil hydrochloride trihydrate and of the anhydrate are also shown for comparison.
# In the relevant range of 1694-1702 cm^−1, the auxiliaries used in Example 1 had no influence on the vardenafil bands (measurement on a placebo tablet is not also shown).
structure (smiles),measurement,setting,value
"CCCc1nc(C)c2c(=O)[nH]c(-c3cc(S(=O)(=O)N4CCN(CC)CC4)ccc3OCC)nn12 [Vardenafil hydrochloride trihydrate, {2-ethoxy-5-[(4-ethyl-1-piperazinyl)sulfonyl]phenyl}-5-methyl-7-propylimidazo-[5,1-f][1,2,4]triazin-4(3H)one]",stability of the hydrate under the processing conditions,Example 4: coating at intake air temperature of 60-65° C.,dehydrated
same,stability of the hydrate under the processing conditions,"Examples 1 to 3: approx. 23° C., 33-35% rel. humidity, coating intake air 45° C.",stable
